Measured values published in PubChem BioAssay AID1918996 (Molecular Pharmacology Branch, DTP, NCI, 2023).
Where “and” joins values, the source holds several entries; their conditions need not be identical. Equal values may be shown once.

Tested on: 349418-098-R-PDC complex spheroid growth
Assay: Anticancer human tumor 349418-098-R-PDC patient-derived lung adenocarcinoma cell line growth inhibition [AhR]
Conditions: for viability, T/C: stronger effect = lower value; active means viability on the fitted dose curve at most 10% of control; inactive means the rest
Outline: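 Complex tumor spheroids co-cultured with HUVEC and human MSC stroma; AhR antagonists tested in combination with standard-of-care and investigational agents. Top concentration at or near clinical Cmax (else 10 microM), half-log dilutions; growth expressed as percent test/control.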

[1] = curve of first compound, second compound 0.1 µM
[2] = curve of first compound, second compound 0.316 µM
[3] = curve of first compound, second compound 1 µM
[4] = curve of first compound, second compound 3.16 µM
[5] = curve of first compound, second compound 10 µM
[6] = second compound 0.1 µM, first compound 0.00949 µM
[7] = second compound 0.1 µM, first compound 0.03 µM
[8] = second compound 0.1 µM, first compound 0.0949 µM
[9] = second compound 0.1 µM, first compound 0.3 µM
[10] = second compound 0.316 µM, first compound 0.00949 µM
[11] = second compound 0.316 µM, first compound 0.03 µM
[12] = second compound 0.316 µM, first compound 0.0949 µM
[13] = second compound 0.316 µM, first compound 0.3 µM
[14] = second compound 1 µM, first compound 0.00949 µM
[15] = second compound 1 µM, first compound 0.03 µM
[16] = second compound 1 µM, first compound 0.0949 µM
[17] = second compound 1 µM, first compound 0.3 µM
[18] = second compound 3.16 µM, first compound 0.00949 µM
[19] = second compound 3.16 µM, first compound 0.03 µM
[20] = second compound 3.16 µM, first compound 0.0949 µM
[21] = second compound 3.16 µM, first compound 0.3 µM
[22] = second compound 10 µM, first compound 0.00949 µM
[23] = second compound 10 µM, first compound 0.03 µM
[24] = second compound 10 µM, first compound 0.0949 µM
[25] = second compound 10 µM, first compound 0.3 µM
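Further: spheroids exposed to agents for seven days before luminescence viability read.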
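Wherever viability, T/C is given: spheroids also contain HUVEC endothelial cells and human MSC stroma.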

CCN(c1cc(-c2ccc(CN3CCOCC3)cc2)cc(C(=O)NCc2c(C)cc(C)[nH]c2=O)c1C)C1CCOCC1 + CC(CO)NC(=O)c1cc(-c2ccc(Cl)cc2)nn(-c2cnn(C)c2)c1=O
273 nM: IC50 [5]
inactive: viability, T/C [6] 110% | viability, T/C [7] 110% | viability, T/C [8] 86.7% | viability, T/C [9] 79.4% | viability, T/C (second compound 0.1 µM, first compound 0.949 µM) 87.1% | viability, T/C (second compound 0.1 µM, first compound 3 µM) 74.7% | viability, T/C [10] 95% | viability, T/C [11] 118% | viability, T/C [12] 107% | viability, T/C [13] 89.2% | viability, T/C (second compound 0.316 µM, first compound 0.949 µM) 96% | viability, T/C (second compound 0.316 µM, first compound 3 µM) 76.1% | viability, T/C [14] 114% | viability, T/C [15] 123% | viability, T/C [16] 107% | viability, T/C [17] 76.2% | viability, T/C (second compound 1 µM, first compound 0.949 µM) 95.1% | viability, T/C (second compound 1 µM, first compound 3 µM) 59.7% | viability, T/C [18] 77.5% | viability, T/C [19] 63.4% | viability, T/C [20] 72.4% | viability, T/C [21] 67.9% | viability, T/C (second compound 3.16 µM, first compound 0.949 µM) 41.9% | viability, T/C (second compound 3.16 µM, first compound 3 µM) 70.4% | viability, T/C [22] 54.2% | viability, T/C [23] 79% | viability, T/C [24] 85.6% | viability, T/C [25] 40.5% | viability, T/C (second compound 10 µM, first compound 0.949 µM) 55.5% | viability, T/C (second compound 10 µM, first compound 3 µM) 47.9%
> 3000 nM: IC50 [1] | IC50 [2] | IC50 [3] | IC50 [4]

CC(C)c1c(-c2ccccc2)nc2c(C#N)c[nH]n2c1=O
inactive: viability, T/C (compound 0.0316 µM) 112% and 92.6% and 89.1% | viability, T/C (compound 0.1 µM) 106% and 83.2% and 76.1% | viability, T/C (compound 0.316 µM) 100% and 78.1% and 72% | viability, T/C (compound 1 µM) 103% and 77.8% and 82.3% | viability, T/C (compound 3.16 µM) 108% and 86.8% and 85.3% | viability, T/C (compound 10 µM) 91.6% and 86.8% and 79.7%
> 10000 nM: IC50 (curve of compound)

Nc1ccn(C2OC(CO)C(O)C2(F)F)c(=O)n1 (configuration not stated) + Cc1cncc(-c2nc(NCCc3c[nH]c4ccccc34)c3ncn(C(C)C)c3n2)c1
active: viability, T/C (second compound 0.1 µM, first compound 0.0316 µM) 5.21% | viability, T/C (second compound 0.1 µM, first compound 0.1 µM) 5.33% | viability, T/C (second compound 0.1 µM, first compound 0.316 µM) 4.29% | viability, T/C (second compound 0.1 µM, first compound 1 µM) 4.06% | viability, T/C (second compound 0.1 µM, first compound 3.16 µM) 3.79% | viability, T/C (second compound 0.1 µM, first compound 10 µM) 3.29% | viability, T/C (second compound 0.316 µM, first compound 0.0316 µM) 5.26% | viability, T/C (second compound 0.316 µM, first compound 0.1 µM) 5.35% | viability, T/C (second compound 0.316 µM, first compound 0.316 µM) 4.46% | viability, T/C (second compound 0.316 µM, first compound 1 µM) 4.46% | viability, T/C (second compound 0.316 µM, first compound 3.16 µM) 3.84% | viability, T/C (second compound 0.316 µM, first compound 10 µM) 3.1% | viability, T/C (second compound 1 µM, first compound 0.0316 µM) 5.67% | viability, T/C (second compound 1 µM, first compound 0.1 µM) 5.73% | viability, T/C (second compound 1 µM, first compound 0.316 µM) 5.73% | viability, T/C (second compound 1 µM, first compound 1 µM) 4.6% | viability, T/C (second compound 1 µM, first compound 3.16 µM) 6.45% | viability, T/C (second compound 1 µM, first compound 10 µM) 3.8% | viability, T/C (second compound 3.16 µM, first compound 0.0316 µM) 8.15% | viability, T/C (second compound 3.16 µM, first compound 0.1 µM) 6.5% | viability, T/C (second compound 3.16 µM, first compound 0.316 µM) 5.64% | viability, T/C (second compound 3.16 µM, first compound 1 µM) 4.25% | viability, T/C (second compound 3.16 µM, first compound 3.16 µM) 4.89% | viability, T/C (second compound 3.16 µM, first compound 10 µM) 3.39% | viability, T/C (second compound 10 µM, first compound 0.0316 µM) 4.66% | viability, T/C (second compound 10 µM, first compound 0.1 µM) 3.51% | viability, T/C (second compound 10 µM, first compound 0.316 µM) 3.29% | viability, T/C (second compound 10 µM, first compound 1 µM) 4.08% | viability, T/C (second compound 10 µM, first compound 3.16 µM) 2.99% | viability, T/C (second compound 10 µM, first compound 10 µM) 2.51%
< 31.6 nM: IC50 [1] | IC50 [2] | IC50 [3] | IC50 [4] | IC50 [5]

Nc1ncn(C2CC(O)C(CO)S2)c(=O)n1 (configuration not stated) + Cc1cncc(-c2nc(NCCc3c[nH]c4ccccc34)c3ncn(C(C)C)c3n2)c1
76.2 nM: IC50 [4]
active: viability, T/C (second compound 10 µM, first compound 0.000949 µM) 2.25% | viability, T/C (second compound 10 µM, first compound 0.003 µM) 2.66% | viability, T/C [22] 2.49% | viability, T/C [23] 2.15% | viability, T/C [24] 2.02% | viability, T/C [25] 2.32%
< 0.949 nM: IC50 [3] | IC50 [5]
inactive: viability, T/C (second compound 0.1 µM, first compound 0.000949 µM) 102% | viability, T/C (second compound 0.1 µM, first compound 0.003 µM) 96.7% | viability, T/C [6] 90.8% | viability, T/C [7] 74.5% | viability, T/C [8] 59.3% | viability, T/C [9] 30.7% | viability, T/C (second compound 0.316 µM, first compound 0.000949 µM) 88.6% | viability, T/C (second compound 0.316 µM, first compound 0.003 µM) 93.7% | viability, T/C [10] 83% | viability, T/C [11] 71.4% | viability, T/C [12] 59.1% | viability, T/C [13] 31.8% | viability, T/C (second compound 1 µM, first compound 0.000949 µM) 47.5% | viability, T/C (second compound 1 µM, first compound 0.003 µM) 42.5% | viability, T/C [14] 38.9% | viability, T/C [15] 37.6% | viability, T/C [16] 30.4% | viability, T/C [17] 24% | viability, T/C (second compound 3.16 µM, first compound 0.000949 µM) 70% | viability, T/C (second compound 3.16 µM, first compound 0.003 µM) 86.3% | viability, T/C [18] 94.6% | viability, T/C [19] 73.6% | viability, T/C [20] 44.7% | viability, T/C [21] 30.6%
133 nM: IC50 [1] | IC50 [2]
